Laboratory results taken from patent US20210071183A1, “ZINC ASSOCIATED TREATMENT FOR AND DIAGNOSIS OF CACHEXIA” (THE TRUSTEES OF COLUMBIA UNIVERSITY IN THE CITY OF NEW YORK, priority 2018, published 2021).
Where a SMILES comes first, the peptide text is derived from it. The star is where a group is joined. Cbz = O=C(OCc1ccccc1)*

How the values were obtained:
Zip14 expression [1] = experiment: Zip14 qRT-PCR in human primary skeletal myoblasts treated with cytokines and signaling pathway inhibitors; format: cell-based; conditions: human primary muscle cells; for Zip14 expression after recombinant cytokine treatment: TNFα 50 ng/ml, TGFβ 10 ng/ml
Procedure: (§1) Treatment with cytokines and signaling pathway inhibitors: Murine C2C12 myoblasts and human primary skeletal myoblasts were serum-starved overnight, and then treated with or without inhibitors of the TGFβ/Smad, […] pathways, which are SB431542 (purchased from Thermo Fisher), CC401 (purchased from Thermo Fisher) and BAY 11-7085 (purchased from Enzo), respectively, followed by treatment with recombinant cytokines purchased from R&D Systems (recombinant mouse TNFα and TGFβ1 at 50 ng/ml and 10 ng/ml, respectively, for C2C12, recombinant human TNFα and TGFβ1 at 50 ng/ml and 10 ng/ml, respectively, for human primary skeletal myoblasts). Cells were pretreated with either vehicle (DMSO) control, or 10 μM of the respective pathway inhibitors for 1 hour, and then treated with TGFβ1 for 9 hours or TNFα for 3 hours before harvest. Cells with different treatments were harvested together for subsequent analysis.

Zip14 expression [2] = experiment: Zip14 qRT-PCR in murine C2C12 myoblasts treated with cytokines and signaling pathway inhibitors; format: cell-based, mouse; conditions: for Zip14 expression after recombinant cytokine treatment: murine C2C12 myoblasts, TNFα 50 ng/ml, TGFβ 10 ng/ml
Procedure: as §1

4T1 tumor-bearing mice = experiment: Zinc chelator injection in 4T1 tumor-bearing mice; format: in vivo, mouse; conditions: 150 mg/kg body weight daily from 7 days post-tumor cell injection, 4 weeks
Procedure: The effects of zinc chelator injection were analyzed using healthy or C26m2 tumor bearing mice. Excess zinc supplementation exacerbates muscle wasting, while zinc chelation reduces muscle wasting in tumor-bearing mice. […] (A-B) Healthy or C26m2 tumor bearing mice of the indicated genotypes (Zip14 WT or KO) were either treated with regular or zinc-enriched water (25 mM) from the day of tumor cell injection and muscles were collected after […]. Body weight analysis (A) and relative MuRF1/MAFBx mRNA expression levels indicative of muscle wasting (B) are shown. C. Mice were injected with 4T1 tumor cells and were divided into 3 groups, one was provided with regular diet with 86 ppm zinc, second group with 1000 ppm zinc-supplemented diet (high zinc diet) and third group with regular diet with 86 ppm zinc but with zinc chelator injected daily with Sodium diethyldithiocarbamate trihydrate (DEDTC) at 150 mg/kg body weight injected 7 days post-tumor cell injection. Mice were sacrificed after 4 weeks post-tumor cell injection. In all experiments, n=3-8 per group. ns, not significant. *p≤0.05, **p≤0.01, ***p≤0.001 and ****p≤0.0001.

[3] = system: myosin heavy chain (MyHC); experiment: Zinc and MG132 treatment of differentiated C2C12 muscle cells (immunoblot of myofibrillar proteins); format: cell-based, mouse
Procedure: (§2) Zinc and MG132 treatment of muscle cells: 3-day differentiated C2C12 cells were cultured with 50 μM ZnCI2 in differentiation medium for 24 hours. Cells were then used for immunofluorescence staining, gene expression analysis and immunoblot analysis. For MG-132 (benzyloxycarbonylleucyl-leucyl-leucine aldehyde, a proteasome inhibitor) treatment, 3-day differentiated C2C12 cells expressing Zip14 (Adeno-Zip14) were treated with 50 μM ZnCI2 for 24 hours, and then treated with either vehicle (DMSO) or MG132 (50 μM) for 3 hours prior to harvest for immunoblot analysis.
Subcellular fractionation of differentiated C2C12 muscle cells: Fractionation of soluble and myofibrillar components was performed. Differentiated C2C12 muscle cells were collected in cold lysis buffer (20 mM of Tris-HCl pH 7.2, 5 mM of EGTA, 100 mM of KCl, 1% Triton X-100, and 1× protease and phosphatase inhibitor cocktail), and lysed by gentle agitation at 4° C. for 1 h. After centrifugation at 3,000×g for 30 mins at 4° C., the cytosolic fraction (supernatant) was collected and stored in −80° C. The pellet (myofibrils) was washed twice with wash buffer (20 mM of Tris-HCl, pH 7.2, 100 mM of KCl, and 1 mM of DTT). After centrifugation at 3,000×g for 10 mins at 4° C., myofibrillar fraction was extracted in ice-cold extraction buffer (0.6 M of KCl, 1% Triton X-100, 2 mM of EDTA, 1 mM of DTT and 1× protease and phosphatase inhibitor cocktail) with shaking at 4° C. The purified myofibrillar fraction was collected after centrifugation for 3,000×g at 4° C. and stored in −80° C. until further use.

[4] = system: C26m2 tumor-bearing Zip14 WT and KO mice; experiment: Zinc-supplemented water treatment for mice; format: in vivo, mouse
Procedure: (§3) Zinc-supplemented water treatment for mice: ZnS04 solution was purchased from Sigma. Zip14 WT and KO mice were given either regular water or zinc-supplemented drinking water (25 mM ZnS04 in their drinking water). Zinc water was started from the day of tumor injection in the tumor-bearing group and in matched uninjected controls, which continued until the animals were euthanized at 15 days. Tumors were not resected because cachectic symptoms started to develop early and were visible between 8-10 days in the tumor-bearing Zip14 WT group of mice on zinc-enriched water.

[5] = system: Zip14-expressing myoblasts; experiment: Muscle differentiation assays with zinc; format: cell-based, mouse
Procedure: Adenoviral infection: C2C12 cells or mouse primary myoblasts were cultured overnight. C2C12 cells were infected with adenovirus expressing either GFP (green fluorescent protein) control (Adeno-GFP) or mouse Zip14 (Adeno-Zip14, purchased from Vector Biolabs). Primary myoblasts were infected with adenovirus expressing either GFP control (Adeno-GFP) or mouse Zip14 (Adeno-Zip14).
Muscle differentiation assays: Differentiation was initiated after adenoviral infection by switching the growth medium to differentiation medium (DMEM containing 2% horse serum and 5 μg/ml of insulin for C2C12 cells; DMEM containing 2% horse serum without insulin for primary myoblasts) the day after infection. Differentiation medium was changed at designated time-points.
as §2

C2C12 cells = experiment: Cell viability assay (MTS, cleaved caspase-3); format: cell-based; conditions: Zip14-expressing cells; 50 μM ZnCl2 24 h
Procedure: Cell viability assay: Viability of C2C12 cells was determined by MTS assay (a cell proliferation assay based on a colorimetric method for quantification of viable cells in proliferation and cytotoxicity assay) using CellTiter 96® Aqueous One Solution Cell Proliferation Assay kit (purchased from Promega) containing tetrazolium compound. C2C12 cells infected with Adeno-GFP control or Adeno-Zip14 were plated in growth media and differentiated. Cells were treated with 50 μM of ZnCl2 for 24 h. Cell viability was measured by adding 100 μl of growth medium without phenol red to each well after aspirating media from the wells. 20 μl of CellTiter 96 AGueous One Solution Reagent was added to each well. After 1 hour of incubation at 37° C. in CO2 incubator, the amount of soluble formazan was determined by absorbance at 450 nm. Undifferentiated and differentiated C2C12 cells were collected for immunoblot analysis probing for cleaved-caspase-3 expression to assess cell-death. C2C12 cells treated with the indicated doses of doxorubicin (doxo) (purchased from Sigma) served as positive control for both types of viability assays.

[6] = Food and water intake, behavioral coordination, liver and kidney function with zinc-supplemented water; format: in vivo, mouse; conditions: C26m2 tumor-bearing mice with excess zinc supplementation
Procedure: as §3
Behavioral coordination tests in mice: Rotamex-5 (Columbus Instruments) with a rod diameter of 3 cm, was used for testing coordination in mice. In this setup, automatic fall detection is implemented within each lane by a series of photocells placed above the rotating rod. The speed of the rotating rod is programmed for either constant or accelerated modes. […] Latency to fall is detected with 0.1 second temporal resolution. […] For each mouse, an average of 3 runs are recorded, with 5 minutes rest between each run. The speed that the rod is spinning at when the mouse falls is measured in RPMs. The time it takes for the mouse to fall is measured in seconds. […] When the mice fall off the speed of the rod and amount of time the mouse was on the rod are recorded. […]

[7] = Zip14-wild-type tumor-bearing mice (C26m2), 25 mM ZnSO4 drinking water
[8] = Zip14-expressing myotubes treated with zinc (50 μM) for 24 hours

CC(C)(C)c1ccc(S(=O)(=O)/C=C/C#N)cc1 [Bay11-7085]
Zip14 expression (TNFα-induced) (Zip14 expression [1]; TNFα 50 ng/ml 3 hours, 10 μM inhibitor pretreated 1 hour, qRT-PCR): blocked
Zip14 expression (TNFα-induced) (Zip14 expression [2]; murine C2C12 cells, TNFα 50 ng/ml 3 hours, 10 μM inhibitor pretreated 1 hour, qRT-PCR): blocked

CCN(CC)C(=S)[S-].O.O.O.[Na+] [DEDTC, Sodium diethyldithiocarbamate trihydrate]
muscle wasting (4T1 tumor-bearing mice): reduces

CC(C)C[C@@H](C=O)NC(=O)[C@H](CC(C)C)NC(=O)[C@H](CC(C)C)NC(=O)OCc1ccccc1 [MG132, benzyloxycarbonylleucyl-leucyl-leucine aldehyde, reference compound] (Cbz-Leu-Leu-Leu-aldehyde)
MyHC loss ([3]; Zip14-expressing 3-day differentiated C2C12, 50 μM ZnCl2 24 h, MG132 50 μM 3 hours prior to harvest): could be blocked

NC(=O)c1ccc(-c2nc(-c3ccc4c(c3)OCO4)c(-c3ccccn3)[nH]2)cc1 [SB431542]
Zip14 expression (TGFβ-induced) (Zip14 expression [1]; TGFβ 10 ng/ml 9 hours, 10 μM inhibitor pretreated 1 hour, qRT-PCR): blocked
Zip14 expression (TGFβ-induced) (Zip14 expression [2]; murine C2C12 cells, TGFβ 10 ng/ml 9 hours, 10 μM inhibitor pretreated 1 hour, qRT-PCR): blocked

[Zn] [zinc]
body weight loss [4, 7]: substantial acceleration
muscle atrophy [4, 7]: increase
growth kinetics ([4]; absence of tumors, Zip14-wild-type and knockout mice, 25 mM ZnSO4 drinking water): no detrimental effect
muscle wasting ([4]; tumor-bearing mice, zinc-enriched water (25 mM) or 1000 ppm zinc-supplemented diet): exacerbates
differentiation of myoblasts (MyHC expression, morphology) ([5]; Zip14-expressing C2C12 and primary myoblasts, 50 μM ZnCl2): selectively blocked
MyoD, Mef2c, and Myf5 transcription ([5]; Zip14-expressing C2C12 myoblasts, 50 μM ZnCl2 24 hours, qRT-PCR): transcriptional repression
MyHC protein [3, 8]: striking loss
skeletal actin, tropomyosin, troponin, desmin and myosin light chain (MyLC) protein [3, 8]: remained unchanged
viability (C2C12 cells): no loss
food or water intake, behavior, liver or kidney function [6]: No changes

TGFβ: recombinant mouse or human TGFβ1 cytokine from R&D Systems
Zip14 expression after recombinant cytokine treatment (Zip14 expression [1]): significantly induced
Zip14 expression after recombinant cytokine treatment (Zip14 expression [2]): significantly induced

TNFα
Zip14 expression after recombinant cytokine treatment (Zip14 expression [1]): significantly induced
Zip14 expression after recombinant cytokine treatment (Zip14 expression [2]): significantly induced
